These are literature values, as cited in patent publication US20050070607A1, “N-acetylcysteine compositions and methods for the treatment and prevention of cysteine/glutathione deficiency in diseases and conditions” (priority 2003, published 2005).

SMILES strings stand for the structures.

For one series, the system named is acute lung injury. Conditions: RBC GSH, days of acute lung injury, cardiac index; NAC 70 mg/kg q 8 hr IV; OTZ 63 mg/kg q 8 hr IV; n 48; 10 days; Bernard 1997[222].
A further series relates to HIV infected individuals. Conditions: whole blood GSH; OTC 1500-3000 mg/day po; n 37; 4 weeks; Barditch-Crovo 1998[283].
The subject of a further series is human atherosclerosis. The settings on record: brachial artery flow-mediated dilation; 4.5 g OTC po; n 48; 4 hours; Vita 1998[15].
A further series has as its system chronic renal failure. Conditions: regular users consuming >=1.4 g/day on average, absence of aspirin use; Fored[184].
The test system of a further series is Cystic Fibrosis (CF). The settings on record: air trapping and FEV1; NAC or Ambroxol 200 mg 3 times daily; n 36; 12 weeks; Ratjen 1985[274].

`O=C1N[C@H](C(=O)O)CS1` [OTZ]: the Beneficial effects result in the series with acute lung injury is on record as “Beneficial”.

Regarding `O=C1N[C@H](C(=O)O)CS1` [OTC, L-2-oxothiazolidine-4-carboxylic acid], the Beneficial effects result in the series with HIV infected individuals and with human atherosclerosis was “Beneficial” throughout.

Turning to `CSCC[C@H](N)C(=O)O` [methionine], the “Hearing loss and cochlear damage from aminoglycoside antibiotics and cisplatin” value with cochlea (animal models [245-247]) is reported as “greatly reduced”. Moreover, in the series on cochlea (animal models, systemic administration [246,248]), the “permanent cochlear damage due to acute acoustic overexposure” value is on record as “almost completely prevented”.

As for `CC(=O)Nc1ccc(O)cc1` [acetaminophen], the “relative risk of chronic renal failure” value with chronic renal failure is 5.3.

In the case of `Nc1c(Br)cc(Br)cc1CN[C@H]1CC[C@H](O)CC1` [Ambroxol], the Beneficial effects entry with Cystic Fibrosis (CF) is “Beneficial”.
